Measurements from PubChem BioAssay (NCI).
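Grown in 96-well plates, cells were treated for 48 hours with each compound at five concentrations. Insufficient inhibition: endpoint recorded as highest concentration tested. GI50 is the concentration that inhibits growth by half. TGI: concentration producing complete growth inhibition.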

Experiments:
Assay in all cases: NCI anticancer screen, dose series, 48 h
[1] = system: 786-0 renal
[2] = system: A498 renal
[3] = system: A549 NSCLC
[4] = system: ACHN renal
[5] = system: BT-549 breast
[6] = system: CAKI-1 renal
[7] = system: CCRF-CEM leukemia
[8] = system: COLO 205 colon
[9] = system: DU-145 prostate
[10] = system: EKVX NSCLC
[11] = system: HCC-2998 colon
[12] = system: HCT-116 colon
[13] = system: HCT-15 colon
[14] = system: HL-60(TB) leukemia
[15] = system: HOP-62 NSCLC
[16] = system: HOP-92 NSCLC
[17] = system: HS 578T breast
[18] = system: HT29 colon
[19] = system: IGROV1 ovarian
[20] = system: K-562 leukemia
[21] = system: KM12 colon
[22] = system: LOX IMVI melanoma
[23] = system: M14 melanoma
[24] = system: MALME-3M melanoma
[25] = system: MCF7 breast
[26] = system: MDA-MB-231 breast
[27] = system: MDA-MB-435
[28] = system: MDA-MB-468 breast
[29] = system: MOLT-4 leukemia
[30] = system: NCI-H226 lung
[31] = system: NCI-H23 lung
[32] = system: NCI-H460 lung
[33] = system: NCI-H522 lung
[34] = system: NCI/ADR-RES ovarian
[35] = system: OVCAR-3 ovarian
[36] = system: OVCAR-4 ovarian
[37] = system: OVCAR-5 ovarian
[38] = system: OVCAR-8 ovarian
[39] = system: PC-3 prostate
[40] = system: RPMI-8226 leukemia
[41] = system: RXF 393 renal
[42] = system: SF-268 CNS
[43] = system: SF-295 CNS
[44] = system: SF-539 CNS
[45] = system: SK-MEL-2 melanoma
[46] = system: SK-MEL-28 melanoma
[47] = system: SK-MEL-5 melanoma
[48] = system: SK-OV-3 ovarian
[49] = system: SN12C renal
[50] = system: SNB-19 CNS
[51] = system: SNB-75 CNS
[52] = system: SR leukemia
[53] = system: SW-620 colon
[54] = system: T-47D breast
[55] = system: TK-10 renal
[56] = system: U251 CNS
[57] = system: UACC-257 melanoma
[58] = system: UACC-62 melanoma
[59] = system: UO-31 renal

SMILES: O=C(/C=C/Nc1ccc(Cl)cc1)c1ccc2c(c1)Nc1ccccc1S2
- GI50 [1]: 11 µM
- TGI [1]: 23.3 µM
- GI50 [2]: 18.4 µM
- TGI [2]: 42.5 µM
- GI50 [3]: 6.43 µM
- TGI [3]: 23.9 µM
- GI50 [4]: 11 µM
- TGI [4]: 27.8 µM
- GI50 [5]: 9.67 µM
- TGI [5]: 33.8 µM
- GI50 [6]: 10.1 µM
- TGI [6]: 24.6 µM
- GI50 [7]: 16.9 µM
- TGI [7]: 69.2 µM
- GI50 [8]: 11.9 µM
- TGI [8]: 28.6 µM
- GI50 [9]: 8.43 µM
- TGI [9]: 27.7 µM
- GI50 [10]: 14.6 µM
- TGI [10]: 36.8 µM
- GI50 [11]: 13.2 µM
- TGI [11]: 36.8 µM
- GI50 [12]: 10.3 µM
- TGI [12]: 29.9 µM
- GI50 [13]: 14.9 µM
- TGI [13]: > 100 µM
- GI50 [14]: 69.8 µM
- TGI [14]: > 100 µM
- GI50 [15]: 4.15 µM
- TGI [15]: 17.1 µM
- GI50 [16]: 12.6 µM
- TGI [16]: 29.9 µM
- GI50 [17]: 3.42 µM
- TGI [17]: 19 µM
- GI50 [18]: 13.1 µM
- TGI [18]: 32 µM
- GI50 [19]: 13.2 µM
- TGI [19]: 34.6 µM
- GI50 [20]: 18.5 µM
- TGI [20]: > 100 µM
- GI50 [21]: 14.6 µM
- TGI [21]: 55.2 µM
- GI50 [22]: 10.1 µM
- TGI [22]: 23.7 µM
- GI50 [23]: 14.6 µM
- TGI [23]: 40.2 µM
- GI50 [24]: 11.4 µM
- TGI [24]: 24.7 µM
- GI50 [25]: 6.64 µM
- TGI [25]: 23.9 µM
- GI50 [26]: 13.3 µM
- TGI [26]: 27.9 µM
- GI50 [27]: 11.3 µM
- TGI [27]: 39.4 µM
- GI50 [28]: 3.44 µM
- TGI [28]: 14.1 µM
- GI50 [29]: 17.6 µM
- TGI [29]: > 100 µM
- GI50 [30]: 11.6 µM
- TGI [30]: 37 µM
- GI50 [31]: 5.34 µM
- TGI [31]: 20.4 µM
- GI50 [32]: 3.77 µM
- TGI [32]: 14.7 µM
- GI50 [33]: 5.1 µM
- TGI [33]: 23.9 µM
- GI50 [34]: 5.71 µM
- TGI [34]: 20.1 µM
- GI50 [35]: 11.4 µM
- TGI [35]: 30.5 µM
- GI50 [36]: 2.84 µM
- TGI [36]: 10.4 µM
- GI50 [37]: 15.9 µM
- TGI [37]: 68.2 µM
- GI50 [38]: 4.38 µM
- TGI [38]: 17.8 µM
- GI50 [39]: 7.55 µM
- TGI [39]: 25.1 µM
- GI50 [40]: 17.7 µM
- TGI [40]: > 100 µM
- GI50 [41]: 14.4 µM
- TGI [41]: 30.5 µM
- GI50 [42]: 6.05 µM
- TGI [42]: 25.1 µM
- GI50 [43]: 4.19 µM
- TGI [43]: 17.1 µM
- GI50 [44]: 8.84 µM
- TGI [44]: 21.5 µM
- GI50 [45]: 13.6 µM
- TGI [45]: 32.8 µM
- GI50 [46]: 24 µM
- TGI [46]: 79.1 µM
- GI50 [47]: 12.4 µM
- TGI [47]: 28.4 µM
- GI50 [48]: 12.9 µM
- TGI [48]: 29.5 µM
- GI50 [49]: 13.7 µM
- TGI [49]: 66.5 µM
- GI50 [50]: 12.2 µM
- TGI [50]: 29.3 µM
- GI50 [51]: 1.96 µM
- TGI [51]: 6.85 µM
- GI50 [52]: 21.2 µM
- TGI [52]: > 100 µM
- GI50 [53]: 10.2 µM
- TGI [53]: 24.7 µM
- GI50 [54]: 12.9 µM
- TGI [54]: 56.4 µM
- GI50 [55]: 13.3 µM
- TGI [55]: 28.8 µM
- GI50 [56]: 6.88 µM
- TGI [56]: 21.3 µM
- GI50 [57]: 18.7 µM
- TGI [57]: 59.9 µM
- GI50 [58]: 10.2 µM
- TGI [58]: 25.7 µM
- GI50 [59]: 16.9 µM
- TGI [59]: 34.3 µM
